Earlier results as cited in patent US20200345666A1, “HERBAL MEDICINAL TABLET FORMULATION FOR TREATING OBESITY WHICH CAN BE […] ON SASANG CONS[…]” (NUBEBE CO., LTD., priority 2017, published 2020).

Settings: taken for 20 weeks or more; Journal of Korean Medicine 2017

For `CN[C@@H](C)[C@H](O)c1ccccc1` [ephedrine], the “weight and body fat loss compared to control group” value is listed as “showed weight and body fat loss”.
